Values joined by “and” are separate entries in the source; they are usually repeats but may differ in a detail not shown here. Equal entries are not always repeated. Where two headings read alike, the source gives them in different places.
Tests used:
ITK (IL2 mRNA) = experiment: Pre-clinical human whole blood αCD3/28/IL-2 mRNA (2 hr); type: cell-based
[1] = Phase 1 multiple ascending dose (MAD) study: pharmacokinetics; type: in vivo, human; details: for AUC(0-inf): read-out: Geometric Mean AUCINF_obs; for AUC(0-t): read-out: Geometric Mean AUC_0-12; for Tmax: read-out: Geometric Mean Tmax; for AUC: read-out: AUC0-τ
Source text: Secondary Endpoints—Compound I plasma concentrations and PK parameters: AUC0-tau, AUC0-inf, Ctrough, Cmax, tmax, Kel, t1/2, CLss/F, Vss/F, Rae.
Overall Design—This was a randomized, Investigator and participant-blind. Sponsor-unblinded, placebo-controlled study designed to evaluate the safety, tolerability, PK, and PD of Compound I in healthy participants. The study consisted of multiple cohorts assessing ascending doses of Compound I.
Approximately 60 participants were enrolled into 5 cohorts. At each dose level/cohort, a total of 10 participants were randomized to receive 2 weeks of oral doses of Compound I (n=8) or placebo (n=2). In Cohort 3, 20 participants were randomized to receive multiple oral doses of Compound I QD (n=8), Compound I TID (n=8), placebo QD (n=2), or placebo TID (n=2).
The study started with a planned dose of 5 mg twice daily (BID). Escalation to the next higher cohort was dependent on safety and PK data from all participants in the previous cohorts and was based on data from at least 6 participants up to at least 48 hours after the last dose. In no instance did the dose escalation steps exceed 3-fold the prior dose level.

[2] = 13 week toxicology and toxicokinetic study in rats; type: in vivo, rat
Source text: Purpose: Evaluation of toxicity and toxicokinetic (TK) for Compound I, following daily dosing for 13 weeks.

ITK and JAK3 = experiment: SAD exploratory PD, all biomarker readouts; type: in vivo, human
Protocol: Secondary Endpoints—Compound I plasma concentrations. Mean change from baseline in ex vivo stimulated pSTAT5 and pSTAT1 (signal transducer and activator of transcription); and in ex vivo stimulated IFNγ mRNA (interferon gamma messenger ribonucleic acid).
Results: Sixty-three subjects completed the SAD study. […] Peak concentrations were reached within 2 hours after dosing.

[3] = human, plasma, oral, 5 mg, Cohort 1, 5 mg BID, Day 1
[4] = human, plasma, oral, 5 mg, Cohort 1, 5 mg BID, Day 7
[5] = human, plasma, oral, 5 mg, Cohort 1, 5 mg BID, Day 15
[6] = human, plasma, oral, 15 mg, Cohort 2, 15 mg BID, Day 1
[7] = human, plasma, oral, 15 mg, Cohort 2, 15 mg BID, Day 7
[8] = human, plasma, oral, 15 mg, Cohort 2, 15 mg BID, Day 15
[9] = human, plasma, oral, 25 mg, Cohort 4, 25 mg BID, Day 1
[10] = human, plasma, oral, 25 mg, Cohort 4, 25 mg BID, Day 7
[11] = human, plasma, oral, 25 mg, Cohort 4, 25 mg BID, Day 15
[12] = human, plasma, oral, 30 mg, Cohort 3a, 30 mg QD, Day 1
[13] = human, plasma, oral, 30 mg, Cohort 3a, 30 mg QD, Day 7
[14] = human, plasma, oral, 30 mg, Cohort 3a, 30 mg QD, Day 15
[15] = human, plasma, oral, 40 mg, Cohort 5, 40 mg BID, Day 1
[16] = human, plasma, oral, 40 mg, Cohort 5, 40 mg BID, Day 7
[17] = human, plasma, oral, 40 mg, Cohort 5, 40 mg BID, Day 15

SMILES: C=CC(=O)N1C[C@H](Nc2ncnc3[nH]cc([C@H]4CC4(F)F)c23)CC[C@@H]1C [Compound I, 1-((2S,5R)-5-((5-((R)-2,2-difluorocyclopropyl)-7H-pyrrolo[2,3-d]pyrimidin-4-yl)amino)-2-methylpiperidin-1-yl)prop-2-en-1-one]
- Potency relative to Ritlecitinib, αCD3/28/IL-2 mRNA (2 hr) (ITK (IL2 mRNA)): (35 fold*)
- IC50 (ITK (IL2 mRNA); Homo sapiens): 0.0077 µg/mL and 21.3 nM
- EC50 (ITK (IL2 mRNA); Homo sapiens, 2 h, read-out: Human Whole Blood EC50, αCD3/28/IL-2 mRNA (2 hr)): 21 nM
- EC50 (ITK (IL2 mRNA); Homo sapiens, read-out: Pre-clinical EC50): 21.3 ± 4.3 nM
- Geometric Mean Accumulation Ratio - AUCtau (Day 15/Day 1) ([1]; Cohort 1, 5 mg BID): 1.2
- Geometric Mean Accumulation Ratio - Cmax (Day 15/Day 1) ([1]; Cohort 1, 5 mg BID): 1.2
- Geometric Mean HL_Lambda_z ([1]; Cohort 1, 5 mg BID, Day 1): 1.51 h
- Geometric Mean HL_Lambda_z ([1]; Cohort 1, 5 mg BID, Day 7): 1.50 h
- Geometric Mean HL_Lambda_z ([1]; Cohort 1, 5 mg BID, Day 15): 1.65 h
- Geometric Mean Accumulation Ratio - AUCtau (Day 15/Day 1) ([1]; Cohort 2, 15 mg BID): 1.6
- Geometric Mean Accumulation Ratio - Cmax (Day 15/Day 1) ([1]; Cohort 2, 15 mg BID): 1.4
- Geometric Mean HL_Lambda_z ([1]; Cohort 2, 15 mg BID, Day 1): 1.53 h
- Geometric Mean HL_Lambda_z ([1]; Cohort 2, 15 mg BID, Day 7): 1.66 h
- Geometric Mean HL_Lambda_z ([1]; Cohort 2, 15 mg BID, Day 15): 1.65 h
- Geometric Mean Accumulation Ratio - AUCtau (Day 15/Day 1) ([1]; Cohort 3a, 30 mg QD): 1.3
- Geometric Mean Accumulation Ratio - Cmax (Day 15/Day 1) ([1]; Cohort 3a, 30 mg QD): 1.1
- Geometric Mean HL_Lambda_z ([1]; Cohort 3a, 30 mg QD, Day 1): 1.90 h
- Geometric Mean HL_Lambda_z ([1]; Cohort 3a, 30 mg QD, Day 7): 1.87 h
- Geometric Mean HL_Lambda_z ([1]; Cohort 3a, 30 mg QD, Day 15): 1.93 h
- Geometric Mean Accumulation Ratio - AUCtau (Day 15/Day 1) ([1]; Cohort 4, 25 mg BID): 1.4
- Geometric Mean Accumulation Ratio - Cmax (Day 15/Day 1) ([1]; Cohort 4, 25 mg BID): 1.3
- Geometric Mean HL_Lambda_z ([1]; Cohort 4, 25 mg BID, Day 1): 1.70 h
- Geometric Mean HL_Lambda_z ([1]; Cohort 4, 25 mg BID, Day 7): 1.91 h
- Geometric Mean HL_Lambda_z ([1]; Cohort 4, 25 mg BID, Day 15): 1.97 h
- Geometric Mean Accumulation Ratio - AUCtau (Day 15/Day 1) ([1]; Cohort 5, 40 mg BID): 1.7
- Geometric Mean Accumulation Ratio - Cmax (Day 15/Day 1) ([1]; Cohort 5, 40 mg BID): 1.4
- Geometric Mean HL_Lambda_z ([1]; Cohort 5, 40 mg BID, Day 1): 1.78 h
- Geometric Mean HL_Lambda_z ([1]; Cohort 5, 40 mg BID, Day 7): 1.85 h
- Geometric Mean HL_Lambda_z ([1]; Cohort 5, 40 mg BID, Day 15): 2.34 h
- Dose proportionality of geometric mean exposure (Cmax and AUC) ([1]; MAD): increases slightly greater than dose-proportional
- Plasma concentration dose dependence ([1]; MAD): increased in a dose-dependent manner
- Time to peak plasma concentration after dosing ([1]; MAD): ≤ 2 h
- AUC(0-inf) [1, 3]: 27 ng·h/mL
- AUC(0-t) [1, 3]: 26 ng·h/mL
- Cmax ([1]; human, plasma, oral, 5 mg, Cohort 1, 5 mg BID, Day 1, read-out: Geometric Mean Cmax): 10.8 ng/mL
- Tmax [1, 3]: 36 min
- AUC(0-inf) [1, 4]: 32 ng·h/mL
- AUC(0-t) [1, 4]: 32 ng·h/mL
- Cmax ([1]; human, plasma, oral, 5 mg, Cohort 1, 5 mg BID, Day 7, read-out: Geometric Mean Cmax): 13 ng/mL
- Tmax [1, 4]: 46.2 min
- AUC(0-inf) [1, 5]: 32 ng·h/mL
- AUC(0-t) [1, 5]: 32 ng·h/mL
- Cmax ([1]; human, plasma, oral, 5 mg, Cohort 1, 5 mg BID, Day 15, read-out: Geometric Mean Cmax): 12.5 ng/mL
- Tmax [1, 5]: 46.2 min
- AUC(0-inf) [1, 6]: 71 ng·h/mL
- AUC(0-t) [1, 6]: 71 ng·h/mL
- Cmax ([1]; human, plasma, oral, 15 mg, Cohort 2, 15 mg BID, Day 1, read-out: Geometric Mean Cmax): 28.8 ng/mL
- Tmax [1, 6]: 48.6 min
- AUC(0-inf) [1, 7]: 110 ng·h/mL
- AUC(0-t) [1, 7]: 109 ng·h/mL
- Cmax ([1]; human, plasma, oral, 15 mg, Cohort 2, 15 mg BID, Day 7, read-out: Geometric Mean Cmax): 42.5 ng/mL
- Tmax [1, 7]: 46.2 min
- AUC(0-inf) [1, 8]: 111 ng·h/mL
- AUC(0-t) [1, 8]: 110 ng·h/mL
- Cmax ([1]; human, plasma, oral, 15 mg, Cohort 2, 15 mg BID, Day 15, read-out: Geometric Mean Cmax): 38.9 ng/mL
- Tmax [1, 8]: 57.6 min
- Cmax ([1]; human, plasma, oral, 15 mg, Human 15 mg, read-out: Cmax): 38.9 ng/mL
- AUC(0-inf) [1, 9]: 175 ng·h/mL
- AUC(0-t) [1, 9]: 173 ng·h/mL
- Cmax ([1]; human, plasma, oral, 25 mg, Cohort 4, 25 mg BID, Day 1, read-out: Geometric Mean Cmax): 64.3 ng/mL
- Tmax [1, 9]: 50.4 min
- AUC(0-inf) [1, 10]: 265 ng·h/mL
- AUC(0-t) [1, 10]: 260 ng·h/mL
- Cmax ([1]; human, plasma, oral, 25 mg, Cohort 4, 25 mg BID, Day 7, read-out: Geometric Mean Cmax): 89.6 ng/mL
- Tmax [1, 10]: 48.6 min
- AUC(0-inf) [1, 11]: 245 ng·h/mL
- AUC(0-t) [1, 11]: 240 ng·h/mL
- Cmax ([1]; human, plasma, oral, 25 mg, Cohort 4, 25 mg BID, Day 15, read-out: Geometric Mean Cmax): 81.8 ng/mL
- Tmax [1, 11]: 42.6 min
- Cmax ([1]; human, plasma, oral, 25 mg, Human 25 mg, read-out: Cmax): 81.8 ng/mL
- AUC(0-inf) [1, 12]: 312 ng·h/mL
- AUC(0-t) [1, 12]: 308 ng·h/mL
- Cmax ([1]; human, plasma, oral, 30 mg, Cohort 3a, 30 mg QD, Day 1, read-out: Geometric Mean Cmax): 104 ng/mL
- Tmax [1, 12]: 40.8 min
- AUC(0-inf) [1, 13]: 375 ng·h/mL
- AUC(0-t) [1, 13]: 366 ng·h/mL
- Cmax ([1]; human, plasma, oral, 30 mg, Cohort 3a, 30 mg QD, Day 7, read-out: Geometric Mean Cmax): 124 ng/mL
- Tmax [1, 13]: 52.2 min
- AUC(0-inf) [1, 14]: 400 ng·h/mL
- AUC(0-t) [1, 14]: 392 ng·h/mL
- Cmax ([1]; human, plasma, oral, 30 mg, Cohort 3a, 30 mg QD, Day 15, read-out: Geometric Mean Cmax): 119 ng/mL
- Tmax [1, 14]: 57.6 min
- Cmax ([1]; human, plasma, oral, 30 mg, Human 30 mg, read-out: Cmax): 119 ng/mL
- AUC(0-inf) [1, 15]: 288 ng·h/mL
- AUC(0-t) [1, 15]: 285 ng·h/mL
- Cmax ([1]; human, plasma, oral, 40 mg, Cohort 5, 40 mg BID, Day 1, read-out: Geometric Mean Cmax): 102 ng/mL
- Tmax [1, 15]: 50.4 min
- AUC(0-inf) [1, 16]: 487 ng·h/mL
- AUC(0-t) [1, 16]: 480 ng·h/mL
- Cmax ([1]; human, plasma, oral, 40 mg, Cohort 5, 40 mg BID, Day 7, read-out: Geometric Mean Cmax): 158 ng/mL
- Tmax [1, 16]: 55.2 min
- AUC(0-inf) [1, 17]: 484 ng·h/mL
- AUC(0-t) [1, 17]: 472 ng·h/mL
- Cmax ([1]; human, plasma, oral, 40 mg, Cohort 5, 40 mg BID, Day 15, read-out: Geometric Mean Cmax): 138 ng/mL
- Tmax [1, 17]: 63 min
- concentration at 6 h ([1]; human, plasma, oral, 15 mg BID, steady-state, 6 hours post-dose): 4.3 ng/mL
- concentration at 8 h ([1]; human, plasma, oral, 25 mg BID, steady-state, 8 hours post-dose): 5.7 ng/mL
- concentration at 11.5 h ([1]; human, plasma, oral, 30 mg QD, steady-state, 11.5 hours post-dose): ~4 ng/mL
- AUC ([1]; plasma, oral, Human 15 mg): 110 ng·h/mL
- AUC ([1]; plasma, oral, Human 25 mg): 240 ng·h/mL
- AUC ([1]; plasma, oral, Human 30 mg): 392 ng·h/mL
- Nephrotoxicity ([2]; Compound I toxicity studies): no evidence of nephrotoxicity
- Cmax ([2]; in vivo, 80 mg/kg, rat, NOAEL 80 mpk): 13800 ng/mL
- AUC(0-t) ([2]; in vivo, 80 mg/kg, rat, NOAEL 80 mpk, read-out: AUC0-24 h at NOAEL): 45000 ng·h/mL
- Adverse effects ([2]; rat, 5, 20, 80 mpk, 13 weeks): No adverse effects observed
- No observed adverse effect level ([2]; rat, daily dosing 13 weeks): 80 mpk
- Modulation of all PD biomarker readouts (ITK and JAK3): dose- and time-dependent modulation
- PD markers of ITK (αCD3/αCD28 induced IL2 and IFNγ mRNA) and JAK3 (IL2 induced pSTAT5) activation (ITK and JAK3): dose-dependently inhibited
- Inhibition of biomarker readouts (ITK and JAK3; 2 hours post treatment, doses of 15 mg to 80 mg): Near-complete inhibition
